Experimental data from ChEMBL document CHEMBL2062490, “The discovery of new potent non-peptide Angiotensin II AT1 receptor blockers: a concise synthesis, molecular docking studies and biological evaluation of N-substituted 5-butylimidazole derivatives” (Eur J Med Chem, 2012).

Experiments:
[1] = Antagonist activity at AT1 receptor in rat uterus assessed inhibition of ANG II-induced contraction
[2] = target: T1, Type-1 angiotensin II receptor (Homo sapiens) (UniProt P30556); assay: (§1) Displacement of 125[I-Sar1-Ile8]ANG II from human AT1 receptor expressed in HEK293 membranes after 1 hr by gamma counting; type: cell membranes
T1 sequence (whole entry): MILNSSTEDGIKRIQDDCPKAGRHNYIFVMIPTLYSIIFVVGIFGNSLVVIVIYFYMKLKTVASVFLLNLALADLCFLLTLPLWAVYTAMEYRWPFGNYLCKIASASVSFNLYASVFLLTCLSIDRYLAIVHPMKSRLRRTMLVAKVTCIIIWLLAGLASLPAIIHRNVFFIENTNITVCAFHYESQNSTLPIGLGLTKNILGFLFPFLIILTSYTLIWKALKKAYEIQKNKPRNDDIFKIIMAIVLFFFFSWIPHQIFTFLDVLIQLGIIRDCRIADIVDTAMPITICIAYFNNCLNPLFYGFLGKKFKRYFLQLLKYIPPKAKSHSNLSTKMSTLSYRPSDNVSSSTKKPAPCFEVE

[3] = target: T2, Type-1 angiotensin II receptor (Homo sapiens, UniProt P30556); assay: as §1; type: cell membranes
T2 sequence (P30556 whole entry): T1 sequence (whole entry)

Structure (SMILES) | pA2 [1] | Activity [2] | IC50 ([3]; read-out: IC50) [nM] | IC50 ([3]; read-out: pIC50 (converted)) [nM]
CCCCc1cnc(CO)n1Cc1ccc(-c2ccccc2C(=O)O)cc1 | 6.19 | Dose-dependent effect | 245 | –
CCCCc1c(Br)nc(CO)n1Cc1ccc(-c2ccccc2-c2nnn[nH]2)cc1 | – | – | 117 | –
CCCCc1c(I)nc(CO)n1Cc1ccc(-c2ccccc2-c2nn[nH]n2)cc1 | 7.35 | Dose-dependent effect | – | –
CCCCc1cnc(C(=O)O)n1Cc1ccc(-c2ccccc2-c2nn[nH]n2)cc1 | 7.83 | Dose-dependent effect | – | –
CCCCc1nc(Cl)c(CO)n1Cc1ccc(-c2ccccc2-c2nnn[nH]2)cc1 | – | Dose-dependent effect | – | –
CCCCc1cnc(CO)n1Cc1ccc(-c2ccccc2-c2nnn[nH]2)cc1 | – | – | 30 | –
CCCCc1c(Br)nc(CO)n1Cc1ccc(-c2ccccc2-c2nn[nH]n2)cc1 | 7.58 | Dose-dependent effect | – | –
CCCCc1c(Cl)nc(CO)n1Cc1ccc(-c2ccccc2-c2nn[nH]n2)cc1 | 6.98 | Dose-dependent effect | 634 | –
CCCCc1cnc(C=O)n1Cc1ccc(-c2ccccc2-c2nn[nH]n2)cc1 | 7.76 | Dose-dependent effect | 24 | –
CCCCc1cnc(C(=O)O)n1Cc1ccc(-c2ccccc2-c2nnn[nH]2)cc1 | – | – | 3 | 3.47
CCCCc1cnc(CO)n1Cc1ccc(-c2ccccc2-c2nn[nH]n2)cc1 | 7.97 | Dose-dependent effect | – | –
CCCCc1c(I)nc(CO)n1Cc1ccc(-c2ccccc2-c2nnn[nH]2)cc1 | – | – | 446 | –
